The structures appear in SMILES notation.

Assay [1] concerns M14. As to the kind of experiment: In vitro cytotoxic activity against Melanoma (M14) cell line at a concentration of 10e-5 M. It counts as functional, Homo sapiens.
The test system of assay [2] is A498. The assay is described as follows: In vitro cytotoxic activity against renal (A498) cell line. It counts as functional. Particulars: Homo sapiens.
In assay [3] the test system is NCI-H522. The assay is described as follows: In vitro cytotoxic activity against lung (H522) cell line. As to conditions: Homo sapiens.
Assay [4] concerns SK-OV-3. As to the kind of experiment: In vitro cytotoxic activity against Ovarian (SK-OV3) cell line. The class given is functional. Particulars: Homo sapiens.
Assay [5] concerns MCF7. The assay is described as follows: In vitro cytotoxic activity against breast (MCF-7/ADR) cell line at a concentration of 10e-5 M. The class given is functional, Homo sapiens.
Assay [6] deals with SW-620. As to the kind of experiment: In vitro cytotoxic activity against colon (SW620) cell line. The class given is functional. As to conditions: Homo sapiens.
In assay [7] the test system is SW-620. The assay is described as follows: In vitro cytotoxic activity against colon (SW620) cell line at a concentration of 10e-5 M. It counts as functional, Homo sapiens.
In assay [8] the test system is U-251. The assay is described as follows: In vitro cytotoxic activity against CNS(U251) cell line. Particulars: Homo sapiens. The class given is functional.
The test system of assay [9] is MCF7. As to the kind of experiment: In vitro cytotoxic activity against breast (MCF-7/ADR) cell line. It counts as functional. Particulars: Homo sapiens.
In assay [10] the test system is NCI-H522. As to the kind of experiment: In vitro cytotoxic activity against lung (H522) cell line at a concentration of 10e-5 M.
Assay [11] concerns A498. The assay is described as follows: In vitro cytotoxic activity against renal (A498) cell line at a concentration of 10e-5 M. It counts as functional, Homo sapiens.
The subject of assay [12] is SK-OV-3. The assay is described as follows: In vitro cytotoxic activity against Ovarian (SK-OV3) cell line at a concentration of 10e-5 M. It counts as functional, Homo sapiens.
Assay [13] deals with M14. As to the kind of experiment: In vitro cytotoxic activity against Melanoma (M14) cell line. The class given is functional. Particulars: Homo sapiens.
Assay [14] relates to U-251. As to the kind of experiment: In vitro cytotoxic activity against CNS(U251) cell line at a concentration of 10e-5 M. It counts as functional, Homo sapiens.
Assay [15] relates to DU-145. As to the kind of experiment: In vitro cytotoxic activity against prostate (DU145) cell line at a concentration of 10e-5 M. The class given is functional, Homo sapiens.
Assay [16] has as its system DU-145. The assay is described as follows: In vitro cytotoxic activity against prostate (DU145) cell line. The class given is functional. Particulars: Homo sapiens.
Assay [17] concerns NCI-H522. As to the kind of experiment: In vitro cytotoxic activity against lung (H522) cell line at a concentration of 10e-5 M. It counts as functional, Homo sapiens.
Assay [18] relates to Mus musculus. The assay is described as follows: In vivo potential in Swiss Albino Mice using modified hollow fiber assay at the dose of 75 mg/kg by sc administration. Particulars: route subcutaneous. The class given is functional.
Assay [19] concerns Mus musculus. As to the kind of experiment: In vivo potential in Swiss Albino Mice using modified hollow fiber assay at the dose of 75 mg/kg by ip administration. The class given is functional. As to conditions: route intraperitoneal.
In assay [20] the test system is Mus musculus. As to the kind of experiment: In vivo potential in Swiss Albino Mice using modified hollow fiber assay at the dose of 150 mg/kg as total score. It counts as functional.
Assay [21] relates to Mus musculus. As to the kind of experiment: In vivo potential in Swiss Albino Mice using modified hollow fiber assay at the dose of 150 mg/kg by sc administration. The class given is functional. Particulars: route subcutaneous.
Assay [22] deals with Mus musculus. As to the kind of experiment: In vivo potential in Swiss Albino Mice using modified hollow fiber assay at the dose of 150 mg/kg by ip administration. It counts as functional. Particulars: route intraperitoneal.
In assay [23] the test system is Mus musculus. As to the kind of experiment: In vivo potential in Swiss Albino Mice using modified hollow fiber assay at the dose of 75 mg/kg as total score. It counts as functional.
Assay [24] concerns Mus musculus. The assay is described as follows: In vivo potential in Swiss Albino Mice using modified hollow fiber assay at the dose of 50 mg/kg by ip administration. It counts as functional. As to conditions: route intraperitoneal.
In assay [25] the test system is Mus musculus. As to the kind of experiment: In vivo potential in Swiss Albino Mice using modified hollow fiber assay at the dose of 100 mg/kg by ip administration. The class given is functional. Particulars: route intraperitoneal.
Assay [26] concerns Mus musculus. As to the kind of experiment: In vivo potential in Swiss Albino Mice using modified hollow fiber assay at the dose of 50 mg/kg as total score. It counts as functional.
In assay [27] the test system is Mus musculus. The assay is described as follows: In vivo potential in Swiss Albino Mice using modified hollow fiber assay at the dose of 100 mg/kg by sc administration. The class given is functional. Particulars: route subcutaneous.
Assay [28] relates to Mus musculus. As to the kind of experiment: In vivo potential in Swiss Albino Mice using modified hollow fiber assay at the dose of 100 mg/kg as total score. It counts as functional.
Assay [29] deals with NCI-H522. The assay is described as follows: In vitro cytotoxicity against H522 (human adenocarcinoma) cell line at a concentration of 10e-5 M.
Assay [30] has as its system Mus musculus. The assay is described as follows: In vivo potential in Swiss Albino Mice using modified hollow fiber assay at the dose of 50 mg/kg by sc administration. The class given is functional. Particulars: route subcutaneous.

For orientation: GI50 means the concentration at which growth is held to half of that of the control. Low values mean more potent growth inhibition, high ones less potent growth inhibition. As for `CC(C)(C)OC(=O)NCC(=O)O[C@@H]1CC2C(C)(C)C(=O)C=C[C@]2(C)C2CC[C@]3(C)C(=CC[C@H]3c3ccoc3)[C@@]21C` (stereo partly drawn), the Growth in [1] stood at 58%; in [5], 62%; in [7], 67%; in [10] it was 53%; in assay [11], 33%; in [12], 48%. Moreover, the Growth in assay [14] is 53%; in assay [15], 63%. For the same molecule, the GI50 in [2] amounted to 12 µM; in [3], 15 µM; in [4] it was 65 µM; in assay [6] it was 20 µM; in [8], 50 µM; in assay [9] it was 60 µM. The GI50 in [13] and in assay [16] was 20 µM in each case.

`CC1(C)C(=O)C=C[C@@]2(C)C1CC(=O)[C@@]1(C)C3=CC[C@@H](c4ccoc4)[C@]3(C)CCC12` (stereo partly drawn): the Growth in assay [1] is recorded as 7%; in [5] it was 30%; in [7] it was 3%; in assay [11], 9%; in assay [12], 43%; in [14], 27%. Further, the Growth came to 43% in assay [17] and 7% in assay [15]. Besides, the GI50 was determined as 4 µM in assay [2]; 25 µM in assay [3]; 7.5 µM in [4]; 3 µM in assay [6]; 6 µM in assay [8]; 3 µM in assay [9]. Also, the results for the GI50 in assay [13] and in assay [16] were 0.6 µM and 6 µM, respectively.

Turning to `CC(=O)O[C@@H]1CC2C(C)(C)C(=O)C=C[C@]2(C)C2CC[C@]3(C)C(=CC[C@H]3c3ccoc3)[C@@]21C` (stereo partly drawn), the Score in [18] is reported as 12; in [19], 14; in assay [20] it was 48; in assay [21] it was 24; in [22], 24; in [23] it was 36. Moreover, the Growth is listed as -6% in assay [1]; -18% in assay [5]; 29% in [7]; 29% in [10]; 23% in assay [11]; 30% in assay [12]. The Growth was -4% in [14] and -6% in assay [15]. The GI50 amounted to 2 µM in assay [2]; 6 µM in assay [3]; 5 µM in [4]; 7 µM in assay [6]; 2.5 µM in assay [8]; 0.06 µM in [9]. Moreover, the concentration for 50% growth inhibition (GI50) was determined as 0.08 µM in assay [13] and 0.05 µM in assay [16].

`CC(=O)O[C@@H]1CC2C(C)(C)/C(=N/OCCN3CCCC3)C=C[C@]2(C)C2CC[C@]3(C)C(=CC[C@H]3c3ccoc3)[C@@]21C` (stereo partly drawn): the Growth is 26% in [1]; 22% in [5]; -51% in assay [7]; -16% in assay [11]; -35% in assay [12]; -24% in assay [14]. Further, the Growth in assay [29] was -13.9%; in assay [15], 32%. For the same molecule, the GI50 in [2] amounted to 4 µM; in assay [3], 4 µM; in [4], 4 µM; in assay [6], 3 µM; in [8], 4 µM; in assay [9], 3 µM. For the same molecule, the 50% growth inhibitory concentration (GI50) in assay [13] worked out at 5 µM; in assay [16], 6 µM. Moreover, the Score in assay [24] was 14; in assay [25], 24; in assay [26], 22; in [27] it was 22; in assay [28], 46; in [30], 8.

Consider `CC(=O)O[C@H]1C[C@@H](OC(C)=O)C(C)(C)C2C[C@@H](OC(C)=O)[C@@]3(C)C4=CC[C@@H](c5ccoc5)[C@]4(C)CCC3[C@]21C` (stereo partly drawn), for which the Score in assay [18] is given as 6; in assay [19] it was 12; in assay [20] it was 48; in assay [21], 24; in [22], 24; in assay [23], 18. For the same molecule, the Growth in assay [1] is listed as -22%; in assay [5], 38%; in assay [7], -60%; in [11], -5%; in assay [12], 42%; in assay [14] it was -24%. For the same molecule, the figures for the Growth in [29] and in [15] were 8% and -19%, respectively. Besides, the GI50 turned out to be 15 µM in [2]; 40 µM in [3]; 9 µM in [4]; 3 µM in [6]; 30 µM in assay [8]; 4 µM in assay [9]. The concentration for 50% growth inhibition (GI50) in assay [13] stood at 5 µM; in assay [16], 4 µM.
